Reference: US20100132057A1, “GENETICALLY MODIFIED ANIMAL FOR USE IN EVALUATING HARMFULNESS OF TEST SUBSTANCE” (priority 2008, published 2010)

Tests used:
[1] = tested on: reporter (luciferase) gene under AhR-binding enhancer of the TH gene and TH gene promoter in primary neuronal cells; experiment: Luciferase luminescence in primary neuronal cells isolated from genetically modified mouse during exposure to TCDD; assay type: cell-based; conditions: 24 hours, FIG. 9; for increase in the degree of luminescence from the unexposed case: primary neuronal cells of mouse #176 embryos (E12)
From the text: Another embodiment of the invention is directed to a method that includes isolating primary neuronal cells from the genetically modified mouse, exposing the primary neuronal cells to a test substance, and then measuring the expression of the reporter gene in the cells to evaluate the effect of the test substance on the central nervous system. When the reporter gene is a firefly luciferase gene, the method may include isolating primary neuronal cells from the genetically modified mouse, exposing the primary neuronal cells to a test substance, collecting the cells to extract proteins therefrom 2 to 72 hours after the exposure, adding luciferin, a substrate for the luciferase, to the liquid extract, and measuring luminescence derived from the enzyme activity of the luciferase with a luminometer.
The genetically modified mouse #176 (hetero, male) was mated with a wild-type mouse, and 12 days after the observation of the plug, the brain was removed from the embryo (E12: an embryonic age of 12 days) under a sterile environment. All the removed embryonic brains were collected, and 0.25% trypsin was added thereto and incubated at 37° C. for 15 minutes. The trypsin was removed. After washed tree times with the Hank's solution, the cells were suspended in a serum-containing DF 1:1 medium (Dulbecco-F12 equal-ratio mixture medium+10% fetal bovine serum). […]
[…] The resulting extracted protein solution was used in the measurement of luciferase luminescence. In the luciferase luminescence measurement, 100 μl of an assay solution (PicaGene Assay Kit, Toyo B-Net Co., Ltd.) was added to 10 μl of the collected protein solution and stirred, and immediately after the stirring, the degree of luminescence per 2 minutes was measured with a luminometer LB-940 (Berthold). The resulting degree of luminescence was divided by the total protein amount of the protein solution so that it was converted into a relative luminescence intensity (RLU/min/μg protein). The total protein amount of the solution was measured with a protein assay kit (Bio-Rad).

[2] = tested on: reporter (luciferase) gene under AhR-binding enhancer of the TH gene and TH gene promoter; experiment: Luciferase luminescence in genetically modified mouse during exposure to βNF (IVIS imaging); assay type: in vivo
Protocol: When the reporter gene is a firefly luciferase gene, the method may include administering luciferin, a substrate for the luciferase, by intraperitoneal injection to the genetically modified mouse 6 to 72 hours after the administration of the test substance to the genetically modified mouse and measuring luminescence derived from the individual or derived from the enzyme activity of the luciferase in the brain with a luminescence measurement system such as an In-Vivo Imaging System (IVIS), manufactured by Xenogen Corporation.
A dioxin analog, β-naphthoflavone (βNF), was used as a test substance. A solution of βNF in corn oil was intraperitoneally injected at a βNF dose of 40 mg/kg into each of the genetically modified mice #176 (4 weeks old), #177 (6 weeks old) and #184 (6 weeks old) in the T1 generation. The same amount of corn oil as the amount of the solution in the βNF-administered group was intraperitoneally administered to each of the control group mice (the genetically modified mice in the T1 generation). […] After 5 minutes, an In-Vivo Imaging System (IVIS 100-series), manufactured by Xenogen Corporation, was used to detect luciferase luminescence in the mice. […] In addition, the brain of the genetically modified mouse #176 was cut in the vicinity of the midbrain, and luminescence from the cut section was measured with the IVIS System.

Structure (SMILES)	change in the degree of luminescence with TCDD concentration ([1]; TCDD 0, 0.1 or 10 ng/ml, primary neuronal cells of mouse #176 embryos)	increase in the degree of luminescence from the unexposed case ([1]; exposure to 0.1 nM TCDD) [times]	increase in the degree of luminescence from the unexposed case ([1]; exposure to 10 ng/ml TCDD) [times]	luciferase luminescence in the mice ([2]; genetically modified mice #176, #177, #184 (T1 generation), βNF 40 mg/kg intraperitoneal in corn oil, 72 hours after administration, whole-body IVIS, FIG. 6)	degree of luminescence from cut brain section ([2]; genetically modified mouse #176, βNF 40 mg/kg intraperitoneal, brain cut in the vicinity of the midbrain, IVIS, FIG. 7)
Clc1cc2c(cc1Cl)Oc1cc(Cl)c(Cl)cc1O2 [TCDD, 2,3,7,8-tetrachlorodibenzo-p-dioxin]	TCDD concentration-dependent increase in the degree of luminescence	1.3	3.1		
O=c1cc(-c2ccccc2)oc2ccc3ccccc3c12 [βNF, β-naphthoflavone]				luciferase luminescence was observed in all the genetically modified mice	an increase in the degree of luminescence was detected in the vicinity of the midbrain or hippocampus
